Consider 3 molecules from paper PMC2787644 (Clinical cancer research : an official journal of the …, 2009).

Where two headings read alike, the source gives them in different places.

Data set [1] in a line: Flavopiridol plasma pharmacokinetics. The following applies: human, intravenous, 80 mg/m2, Cmax, cohort 7a (80 mg/m^2). Type of data set: in vivo.
For data set [2] the following is noted: 70 mg/m^2, combined with irinotecan; cited from earlier work.
The format of data set [3] is in vivo, human. The following applies: component of flavopiridol + FOLFOX.
The next data set relates to cisplatin-refractory GCT. As to conditions: single agent, cited from earlier work.

What is called Cmax is the peak of the concentration-time curve.

As to `CN1CC[C@H](c2c(O)cc(O)c3c(=O)cc(-c4ccccc4Cl)oc23)[C@H](O)C1` [flavopiridol, Flavopiridol], the results for the Cmax in data set [1] (the 3 patients who experienced a DLT), in data set [1] (the other patients in the cohort) and in data set [2] were 2260 nM, 1450 nM and 2760 ± 540 nM, respectively.

As to `O=c1[nH]cc(F)c(=O)[nH]1` [5FU, fluorouracil], the “Maximum tolerated dose (MTD), continuous infusion over 48 hours” value in data set [3] (every 2 weeks (cohort 6a)) is recorded as 1800 mg/m^2. For the same molecule, in data set [3] (every 2 weeks (fixed dose)), the “Maximum tolerated dose (MTD), bolus” value is reported as 400 mg/m^2.

For the molecule `O=C1[O][Pt]2([NH][C@@H]3CCCC[C@H]3[NH]2)[O]C1=O` [oxaliplatin], in the data set with cisplatin-refractory GCT (60 mg/m^2 weekly on days 1, 8, 15 every 28 days), the Overall response rate is given as 6%. Besides, the Objective response rate in the data set on cisplatin-refractory GCT (130 mg/m^2 every 2 weeks) is listed as 19%.
